Paper PMC8284004, “Electrospun wound dressings containing bioactive natural products: physico-chemical characterization and biological assessment” (Biomaterials Research, 2021)
Where two headings read alike, the source gives them in different places. Marks after values point to notes of the source that are not given here.

Tests used:
S. aureus LMG 8224 = experiment: Kirby-Bauer disc diffusion; format: cell-based, Staphylococcus aureus; conditions: for zone of inhibition at 30 µg/disc: Staphylococcus aureus; for Inhibition zone: 53 μM/disc (30 μg/disc for dimeric A/S, 15 μg/disc for shikonin and alkannin)
Experimental: (§1) The antibacterial activity of neat and A/S mixture-loaded fibrous scaffolds was evaluated against the Gram-positive strains, Staphylococcus epidermidis LMG 10474 and S. aureus LMG 8224, implementing the Kirby-Bauer disc diffusion method. The bacteria were cultured onto nutrient agar plates (24 h at 37 °C) and then a dense bacterial suspension was made by transferring a small portion of staphylococci (10 μL) with an inoculating loop to 1 mL of sterile PBS. Next, 100 μL of this suspension were spread to Mueller-Hinton (MH) agar plates for conducting the test. UV-sterilized nanofibers with an average diameter of 8 mm were placed on the surface of inoculated MH plates. The plates were incubated for a period of 24 h at 37 °C. […] After 24 h, the antibacterial activity was evaluated by measuring the inhibition zone of the bacteria in millimeters.

S. epidermidis LMG 10474 = experiment: Kirby-Bauer disc diffusion; format: cell-based, Staphylococcus epidermidis; conditions: for zone of inhibition at 30 µg/disc: Staphylococcus epidermidis; for Inhibition zone: 53 μM/disc (30 μg/disc for dimeric A/S, 15 μg/disc for shikonin and alkannin)
Experimental: as §1

S. aureus = tested on: S. aureus; design: method as in PMID 760130, PMID 5066306; conditions: cited from earlier work
[1] = n-octanol/water (1:1, v/v) ref Ordoudi et al. [24]; cited from earlier work
Hs27 fibroblasts = experiment: SAR study of A/S derivatives on Hs27 metabolic activity (MTT); conditions: for Effect on Hs27 cell viability: 24 h, MTT, vs untreated cells
Experimental: (§2) In this regard, each compound was first dissolved in DMSO and further diluted with DMEM up to the desired concentrations (< 0.1% v/v DMSO to avoid toxicity). […] After the respective incubation times, the metabolic activity was evaluated by MTT assay as described in the previous section. Untreated cells served as controls.

human skin fibroblasts = tested on: human skin fibroblasts; design: method as in PMID 25234005; conditions: non-selective toxicity towards normal cell lines ref 42; cited from earlier work
[2] = tested on: human gingival fibroblasts; design: method as in PMID 31574951; conditions: at 1 μΜ ref 39; cited from earlier work
[3] = tested on: granuloma tissue in Wistar rats; design: method as in PMID 9586574; conditions: dose-dependent ref 41; cited from earlier work
S. epidermidis = tested on: S. epidermidis; design: method as in PMID 760130, PMID 5066306; conditions: cited from earlier work
keratinocytes = tested on: keratinocytes; design: method as in PMID 27725239; conditions: at 1.5 and 3 μΜ ref 40; cited from earlier work
[4] = SAR study of A/S derivatives on Hs27 metabolic activity (MTT); conditions: human
Experimental: as §2

[5] = LMG8224, 30 μg/disc on 8 mm filter paper, 24 h, read-out: Zone of inhibition
[6] = LMG10474, 30 μg/disc on 8 mm filter paper, 24 h, read-out: Zone of inhibition

| SMILES | zone of inhibition at 30 µg/disc (S. aureus LMG 8224; LMG8224, 24 h) [mm] | zone of inhibition at 30 µg/disc (S. epidermidis LMG 10474; LMG10474, 24 h) [mm] | Growth inhibition (S. aureus) | Log P [1] | Effect on Hs27 cell viability (Hs27 fibroblasts; 1 μM) | IC50 (human skin fibroblasts) [nM] | Inhibition zone (S. aureus LMG 8224) [mm] | Inhibition zone (S. epidermidis LMG 10474) [mm] | Proliferation of granuloma tissue [3] | zone of inhibition at 30 µg/disc (S. aureus LMG 8224; [5]) [mm] | zone of inhibition at 30 µg/disc (S. epidermidis LMG 10474; [6]) [mm] | other results |
| --- | --- | --- | --- | --- | --- | --- | --- | --- | --- | --- | --- | --- |
| CC(=O)O[C@H](CC=C(C)C)C1=CC(=O)c2c(O)ccc(O)c2C1=O [Acetyl-shikonin, acetyl-shikonin] | 11.9 ± 1.43 | 14.1 ± 1.25 | inhibited the growth | 0.66 ^c | – | – | – | – | – | – | – | – |
| CC(C)=CC[C@@H](O)C1=CC(=O)c2c(O)ccc(O)c2C1=O [Shikonin, shikonin] | 12.3 ± 0.64 | 14.8 ± 2.12 | inhibited the growth | −0.27 ^c | significant decrease in cell number | 1200 ± 100 | 11.08 ± 0.26 | 10.77 ± 1.07 | succeeded in accelerating (dose-dependently) the proliferation of granuloma tissue | – | – | Effect on Hs27 cell viability (Hs27 fibroblasts; 500 nM): significant decrease in cell number; In vitro migration [2]: enhanced the in vitro migration |
| CC(C)=CCC(OC(=O)C=C(C)C)C1=CC(=O)c2c(O)ccc(O)c2C1=O (stereo not drawn) [β,β-Dimethyl-acryl-shikonin, β,β-dimethyl-acryl-shikonin] | – | – | effective | 1.38 ^c | – | – | – | – | – | 8.98 ± 0.17 | 10.6 ± 0.57 | Growth inhibition (S. epidermidis): effective |
| CC(C)=CCCC1=CC(=O)c2c(O)ccc(O)c2C1=O [Deoxy-shikonin, deoxy-shikonin] | 12.4 ± 0.23 | 13.2 ± 0.22 | – | 1.08^c | – | – | – | – | – | – | – | In vitro migration (keratinocytes): enhanced the in vitro migration |
| CC(C)=CCC(OC(=O)CC(C)C)C1=CC(=O)c2c(O)ccc(O)c2C1=O (stereo not shown) [Isovaleryl-shikonin, isovaleryl-shikonin] | – | – | – | – | – | – | – | – | – | 9.13 ± 0.51 | 11.1 ± 0.94 | Proliferation rate ranking (Hs27 fibroblasts; day 3, isovaleryl-shikonin at 500 nM and 1 μM, dimeric A/S at 1 μM): highest proliferation rates |
| CC(C)=CC[C@H](O)C1=CC(=O)c2c(O)ccc(O)c2C1=O [Alkannin, alkannin] | 12.7 ± 0.58 | 15.2 | – | −0.27 ^c | significant decrease in cell number | 1500 ± 100 | 10.74 ± 0.74 | 10.69 ± 1.01 | succeeded in accelerating (dose-dependently) the proliferation of granuloma tissue | – | – | viability at 3 days, 0.5 µM [4]: > 110%; Zone of inhibition (S. epidermidis LMG 10474; 30 μg/disc on 8 mm filter paper, 24 h): 15.16 ± 0.66 mm |
